Assay results from US12312333B2, “SK channel positive allosteric modulators” (Chapman University, priority 2021, dated 2025).
“Also recorded” adds a separate entry of the source.

Test system: Purkinje cells in acute cerebellar slices from SCA2-58Q mouse
Assay: Cerebellar slice loose-patch recordings of spontaneous PC activity in SCA2-58Q mice
Format: cell-based
Conditions: 10 μM; for effect on PC firing pattern: bursting SCA2-58Q PC; for Average firing frequency (FF) after exposure: 10-s fragment of one PC recording, before application 2o 157.2 Hz, 2q 134.3 Hz
Method: The ISI distribution before and after 2o application, obtained from 10-s fragments of the recording was also analyzed (FIG. 9C). […] The ISI distribution before and after 2q application, obtained from 10-s fragments of the recording was also analyzed (FIG. 10A).
Transgenic SCA2-58Q mice and their wild type (WT) littermates were used in these experiments. SCA2-58Q mice were kindly provided to us by Dr. Stefan Pulst (University of Utah) and were crossed to the FVB background strain. Hemizygous male SCA2-58Q mice were crossed with the WT female mice to generate mixed litters. The genotyping was done via PCR for ATXN2 transgene. The volume of one PCR sample was 25 μl. The PCR mix per one sample contained: 2.5 μl 10× buffer for Taq polymerase, 0.5 μl 10 mM dNTP, 1.5 μl 25 mM MgCl2, 0.125 μl 20 μM primers (forward and reverse), 0.25 μl Taq polymerase, 2 μl DNA, and 18 μl dH2O. For forward and reverse primer sequences, see e.g., Egorova et al., Cell Calcium, 2021 January; 93: 102319. The PCR product has 232 bp. Mice were housed in groups of two to six in one cage in the vivarium. The temperature was kept 22-24° C. including 12 daylight hours. […] All procedures were approved by the Bioethics Committee of the Peter the Great St. Petersburg Polytechnic University at St. Petersburg, Russia, and followed the principles of the European convention (Strasbourg, 1986) and the Declaration of International medical association about humane treatment of animals (Helsinki, 1996).
Recordings of spontaneous PC activity from WT and SCA2-58Q mice at 7-8 months of age were performed. Briefly, the mice were anesthetized with 2,000 mg/kg urethane and transcardially perfused with ice-cold aCSF containing 85 mM NaCl, 24 mM NaHCO3, 25 mM glucose, 2.5 mM KCl, 0.5 mM CaCl2, 4 mM MgCl2, 1 mM NaH2PO4, and 75 mM sucrose. Solutions were equilibrated with carbogen (95% O2/5% CO2). Next, the cerebellum was dissected and 300 μm thick sagittal slices were cut with a VT1200S vibratome (Leica). […] The external bath solution used for the recording was the same as the recovery aCSF, but also contained 100 μM picrotoxin (PTX) and 10 μM 6,7-dinitroquinoxaline-2,3-dione (DNQX), equilibrated with carbogen. All recordings were made within 5-6 hours after cerebellum was dissected. The recording chamber was heated to 35° C. using TC-324C automatic temperature controller (Warner Instruments). Loose-patch recordings were made to evaluate the spontaneous activity of cerebellar PCs. Briefly, 1-3 MΩ glass pipettes were filled with the internal solution containing 140 mM NaCl buffered with 10 mM HEPES pH 7.3 and held at 0 mV. A loose patch (<100 MΩ) configuration was established at the PC soma at the axon hillock area. Spontaneous action potential currents were recorded for 5-60 min from each cell using Axon Multiclamp 700B amplifier (Molecular Devices). The 10 min recordings were analyzed for tonic or burst firing. Cells were characterized as firing tonically if they fired repetitive nonhalting spike trains for 10 min. A cell was characterized as bursting if it had more than 5% of the interspike intervals that fell outside of 3 SD from the mean of all interspike intervals in that cell. The analysis of PC firing was performed using Clampfit 10.2 (Molecular Devices). Data was plotted as the instantaneous firing rate every 100 ms for the entire recording duration.

Compound	effect on PC firing frequency	effect on regularity of PC activity	effect on PC firing pattern	Average firing frequency (FF) after exposure	time after application until cell activity switched to the silent mode
Cc1cc(Nc2ccc(F)c(Cl)c2)nc(-n2nc(C)cc2C)n1 [Compound 2o, N-(3-Chloro-4-fluorophenyl)-2-(3,5-dimethyl-1H-pyrazol-1-yl)-6-methyl-pyrimidin-4-amine]	significantly decreased the firing frequency of the cell	improved the regularity of PC activity	converted bursting SCA2-58Q PC to tonic firing pattern; also recorded: normalize abnormal firing of Purkinje cells; also recorded: converts bursting patterns into tonic activity of PC	84.6 Hz	–
Cc1cc(Nc2cc(Cl)ccc2F)nc(-n2nc(C)cc2C)n1 [Compound 2q, N-(5-Chloro-2-fluorophenyl)-2-(3,5-dimethyl-1H-pyrazol-1-yl)-6-methylpyrimidin-4-amine]	significantly decreased the firing frequency of the cell	improved the regularity of PC activity	converted bursting SCA2-58Q PC to tonic firing pattern; also recorded: normalize abnormal firing of Purkinje cells; also recorded: converts bursting patterns into tonic activity of PC and then into a silent mode	55.9 Hz	8 min
